Reference: patent US20180077928A1, “INSECT REPELLENT FIBER AND INSECT REPELLENT SCREEN USING SAME” (priority 2015, published 2018)

Assays:
[1] = Acceptable Daily Intake (ADI) set by WHO and FAO; acceptable intake used in evaluation criteria; set-up: species or system human; details: person/child who weighs 15 kg, calculated from ADI
Description: When the amount of the insect repellent 4 (permethrin) exposed to the surface of the insect repellent fiber 1 is less than 0.4 μg per gram of the insect repellent fiber 1, the insect repellent effect cannot be sufficiently exerted. […] The WHO and FAO (Food and Agriculture Organization of the United Nations) have investigated harmful effects of permethrin to a human body on the basis of a large amount of data obtained by animal tests and the like. According to the investigation results, the amount of permethrin that can be ingested by human over a lifetime without an appreciable health risk, or also referred to as ADI (Acceptable Daily Intake), is set to “0.05 mg/day/kg”. For example, for people who weigh 15 kg (weight of around a child), this value per day is calculated to be 0.75 mg. This means that permethrin of such an amount may be continually ingested without an appreciable health risk. […]
The safety was evaluated according to the following evaluation criteria by assuming a situation that a child who weighs 15 kg licked a whole area of a screen door in which the insect repellent screen having an area of 1 m^2 was installed. […] It is noted that when the insert repellent screen was evaluated as “good”, the insect repellent screen was determined to be safe.

[2] = human, over a lifetime without appreciable health risk; WHO and FAO; cited from earlier work

| Compound | acceptable intake per day [1] [mg] | ADI (Acceptable Daily Intake) [2] [mg/day/kg] |
| --- | --- | --- |
| CCOc1ccc(C(C)(C)COCc2cccc(Oc3ccccc3)c2)cc1 [ethofenprox] | 0.45 |  |
| CC1(C)C(C=C(Cl)Cl)C1C(=O)OCc1cccc(Oc2ccccc2)c1 (stereo not drawn) [permethrin] | 0.75 | 0.05 |
